Experimental findings from patent US20130280755A1, “THERAPEUTIC METHODS FOR SOLID DELIVERY” (Fred Hutchinson Cancer Research Center, priority 2010, published 2013) are described below.

SMILES strings stand for the structures.

One assay concerns lymphoma tumor. Put plainly: Doxorubicin delivered to a lymphoma tumor with a needle array; excised tumor slices imaged by fluorescence and brightfield microscopy. The format is in vivo. The source says:
Doxorubicin was delivered to a lymphoma tumor using a needle array of the method. The tumor was then excised and sectioned. […] Regions of doxorubicin fluorescence and cell death are localized to a zone within the tumor slice, reflecting spatially constrained doxorubicin delivery.

In another assay the test system is mouse tumor. The assay can be described thus: Mouse tumor injected with doxorubicin and control; fluorescent imaging of the apoptosis signal. The format is in vivo. The conditions noted are these: FIG. 14; excitation 640 nm, emission 720 nm of the dye; versus control injection. The procedure:
FIG. 14 depicts the use of various indicator dyes according to the method, to monitor spatially restricted delivery of compounds and resulting localized effects on regions of a tumor. A mouse tumor was injected with 1. doxorubicin; and 2. a control. Panel A illustrates excitation at 640 nm and emission at 800 nm of the dye. Panel B illustrates the doxorubicin signal (3.) observed after excitation at 500 nm and emission at 600 nm of doxorubicin. Panel C illustrates an apoptosis signal (4.) observed after excitation at 640 nm and emission at 720 nm of the dye.

Assay [1] relates to Intracranial medulloblastoma model (conditional Patchedl null) mice. The assay can be described thus: Survival of intracranial medulloblastoma model mice. The format is in vivo, mouse. As to conditions: FIG. 13; 20 mg/kg daily; monitored for 50 days; versus vehicle only. The procedure:
The results of the in vivo experiment depicted in FIG. 12 predicted that Shh antagonists would have a positive effect on a mouse model of cancer. Intracranial medulloblastoma model (conditional Patchedl null) mice used in this experiment develop medulloblastoma with an early onset and 100% penetrance. Accordingly, mice were injected daily with 20 mg/kg of either A) vehicle plus IPI-926 (n=12); or B) vehicle only (n=11). The mice were monitored for 50 days for survival, and the results depicted in FIG. 13.

For the compound `COc1cccc2c1C(=O)c1c(O)c3c(c(O)c1C2=O)C[C@@](O)(C(=O)CO)C[C@@H]3O[C@H]1C[C@H](N)[C@H](O)[C@H](C)O1` [Doxorubicin], the “cell death in tumor slice, relative to doxorubicin fluorescence” value with lymphoma tumor (FIG. 8, one tumor slice, needle array delivery) is “doxorubicin fluorescence overlaps with the region of dead cells”. The “cell death across tumor depths” value in the assay on lymphoma tumor (FIG. 9, three cross-sectional slices from different depths) is given as “Cell death was observed in a localized area across the three tumor depths”. Moreover, the apoptosis signal result in the assay with mouse tumor was “apoptosis overlaps with the region that received doxorubicin”.

As to `CC1=C2C[C@H]3[C@@H](CC[C@@H]4C[C@H](NS(C)(=O)=O)CC[C@@]43C)[C@@H]2CC[C@@]2(C1)O[C@@H]1C[C@H](C)CN[C@H]1[C@H]2C` [IPI-926], in assay [1], the survival entry was “significantly increased survival”.
